{"source": "patent US20090197279A1", "about": "“MICROTUBULE SYNTHESIS AS A BIOMARKER” (KINEMED, INC., priority 2005, published 2009)", "key": {"[1]": {"system": "total hippocampal proteins", "assay": "Fractional synthesis of total hippocampal proteins", "format": "in vivo, mouse", "settings": "glutamate ICVC vs mock-treated animals", "experimental": "FIG. 7 depicts the effects of ICV glutamate on the relative amounts of MT subpopulations and on total protein synthesis in murine hippocampus. (A, B) Tubulin abundances are measured by Western blot analysis for α-tubulin at 8 hour (A) and 24 hours (B). Subpopulations were total extract (total), free tubulin dimers, tau-associated MTs, tau-nonassociated (MAP2/STOP) MTs and cold stable (CS) MTs. Mock and glutamate infused ICVC mice are shown (cf. FIGS. 6A and B). […] (C) Fractional synthesis of total hippocampal proteins. Glutamate increased protein synthesis versus mock-treated animals (*p<0.01); this effect was blocked by coadministration with 0.66 pmol of Rp-cAMP (**p<0.02).\nThis hypothesis had not previously been tested in the living brain, however. To test this hypothesis, we used the methods of the invention disclosed herein. Mice were infused with 6 μl water containing 0.48 nmol glutamate (80 μM in the infusate), or glutamate plus 0.66 pmol Rp-cAMP (110 nM in the infusate). Label incorporation into hippocampal tubulin dimers and into microtubule polymers was then quantified after administration of ^2H2O for 8 hours or 24 hours (FIGS. 7A and 7B). […] These findings further strengthen the previously reported correlation between hippocampus glutamate NMDA receptor-dependent learning (long-term potentiation) and protein synthesis (Kandel, E. R. The molecular biology of memory storage: a dialogue between genes and synapses. Science 294, 1030-1038 (2001)). By the same criterion, the glutamate-induced program of changes in hippocampal microtubule dynamics shown in FIGS. 6 and 7 also alters hippocampal total protein synthesis in vivo (data not show), further supporting the capacity of the invention disclosed herein to generate a biochemical record of basic neuroanatomic connectivity in the brain and thereby to reveal the dynamics of synaptogenesis in vivo."}, "[2]": {"system": "hippocampal tubulin dimers and tau-associated, tau-nonassociated (MAP2/STOP) and cold-stable microtubules", "assay": "2H label incorporation into hippocampal tubulin dimers and microtubule fractions after ICVC infusion (2H2O labeling, GC/MS)", "format": "in vivo, mouse", "settings": "for label incorporation into new MAP2/STOP-MTs: vs water", "experimental": "In (A) and (B), mice received ICVC infusions of 6 μl water alone or containing 0.48 nmol glutamate (80 μM in the infusate), or glutamate plus 0.66 pmol Rp-cAMP (110 nM in the infusate). Animals were then labeled with ^2H2O for 8 hours (A) or 24 hours (B). At sacrifice, the hippocampal post-nuclear supernatant was fractionated as show in FIG. 5A; a separate aliquot was used for isolation of cold stable (CS) MTs (FIG. 5D). Glutamate injection stimulated label incorporation into new MAP2/STOP-MTs at 8 and 24 hours, and CS MTs at 24 hours; both were blocked by Rp-cAMP. In order to correct the effects of pharmacologic intervention on MT dynamics for the confounding changes in tubulin synthesis, the numbers above each bar express ^2H label incorporation into MT as a percentage of ^2H labeling in the corresponding tubulin dimer fractions. (C) Dose dependence of glutamate effects. ^2H2O labeling was initiated at time zero, 6 μl ICVC infusions with the indicated concentrations of glutamate were performed at 24 hours, and labeling was continued until sacrifice at 48 hours (24 hours post glutamate infusion). Hippocampal MTs were fractionated into tau-associated, MAP2-associated, and non-associated (STOP-associated) MT fractions, as in FIG. 5A. In all experiments, bars represent % new tubulin (mean±SD, n=3).\nTubulin was purified using minor modifications of protocols described previously (Fanara, P., Oback, B., Ashman, K., Podtelejnikov, A., Brandt, R. Identification of MINUS, a small polypeptide that functions as a microtubule nucleation suppressor. EMBO J. 18, 565-577 (1999); Fanara, P. et al. In vivo measurement of microtubule dynamics using stable isotope labeling with heavy water. Effect of taxanes. J. Biol. Chem. 279, 49940-49947 (2004). Briefly, cultured neurons were gently scraped off culture plates, washed in phosphate-buffered saline (PBS), and homogenized in microtubule-stabilizing buffer. For purification ex vivo, mice were anesthetized with isoflurane and euthanized by cervical dislocation. Brains were rapidly removed and washed in microtubule-stabilizing buffer (MSB); hippocampi were dissected and gently homogenized in MSB. To separate cytosolic tubulin dimers from microtubule polymers, post-nuclear supernatants were centrifuged at 190,000×g at 20° C. for 35 min. The supernatant or non-microtubule fraction (containing the soluble dimeric tubulin) was separated from the pellet or microtubule fraction (containing polymeric tubulin), quick-frozen and stored at −20° C. Microtubule pellets were further fractionated by sequential immunoaffinity chromatography steps (FIG. 3). In order to isolate tau-associated microtubules, TAU5 antibody was covalently coupled to epoxy-activated Sepharose beads (Amersham Pharmacia Biotech) at a concentration of 0.25 mg/ml. Approximately 0.2 mg of the microtubule pellet was incubated with TAU-5 beads in 0.5 ml MSB for 1 hour at room temperature. Unbound material was removed, the beads were washed three times in 0.5 ml of MSB, and bound material was eluted in 0.5 ml MSB containing 1M NaCl. In some experiments, MAP2-associated microtubules were captured from the TAU5-unbound material by immunoaffinity chromatography on epoxy-activated Sepharose beads coupled to MAP2 antibody (0.5 mg antibody per ml beads) using the same protocol. The relative abundance of tubulin in each preparation (Tubulin dimers and TAU5-bound, MAP2-bound, and unbound microtubule fractions) was quantified by Western blot, and tubulin from these fractions was further purified by ion exchange and size exclusion chromatography, as previously described (Fanara, P. et al. In vivo measurement of microtubule dynamics using stable isotope labeling with heavy water. Effect of taxanes. J. Biol. Chem. 279, 49940-49947 (2004)). […]"}, "[3]": {"settings": "dose-dependence experiment, 24 hours post stimulation"}}}
{"compound": "N[C@@H](CCC(=O)[O-])C(=O)[O-].[K+].[K+]", "note": "[glutamate, potassium L-glutamate]", "values": [{"measurement": "fractional synthesis of total hippocampal proteins", "setting": "[1]", "result": "alters"}, {"measurement": "fractional synthesis of total hippocampal proteins", "setting": "[1]; listed as Glutamate", "result": "increased"}, {"measurement": "label incorporation into new MAP2/STOP-MTs", "setting": "[2]; 0.48 nmol glutamate ICVC, 2H2O labeling 8 hours", "result": "stimulated"}, {"measurement": "label incorporation into new MAP2/STOP-MTs", "setting": "[2]; 0.48 nmol glutamate ICVC, 2H2O labeling 24 hours", "result": "stimulated"}, {"measurement": "fractional synthesis of tubulin dimers", "setting": "[2]; 0.48 nmol glutamate ICVC, 8 and 24 hours labeling, vs controls", "result": "somewhat enhanced"}, {"measurement": "tau-nonassociated microtubules exchanged with free tubulin", "setting": "[2]; 0.48 nmol glutamate ICVC, 8 hours", "result": "ca. 80%"}, {"measurement": "labeling of cold-stable (axonal shaft) microtubules", "setting": "[2]; 0.48 nmol glutamate ICVC, 8 hours, vs controls", "result": "indistinguishable from controls"}, {"measurement": "tau-nonassociated microtubules exchanged with free tubulin", "setting": "[2]; 0.48 nmol glutamate ICVC, 24 hours", "result": "ca. 80%"}, {"measurement": "cold-stable microtubules equilibrated with free tubulin", "setting": "[2]; 0.48 nmol glutamate ICVC, 24 hours, MT label as percentage of tubulin dimer label", "result": "about 40%"}, {"measurement": "label incorporation into cold stable (CS) MTs", "setting": "[2]; 0.48 nmol glutamate ICVC, 24 hours, vs controls", "result": "increased"}, {"measurement": "label incorporation into cold stable (CS) MTs", "setting": "[2]; 0.48 nmol glutamate ICVC, 24 hours, vs controls, listed as Glutamate", "result": "stimulated"}, {"measurement": "exchange of tau-associated microtubules with tubulin dimers", "setting": "[2]; 8 hours after stimulation with glutamate", "result": "highly exchanged"}, {"measurement": "dynamics of tau-associated microtubules", "setting": "[2]; 24 hours after stimulation with glutamate, vs controls", "result": "less dynamic than controls"}, {"measurement": "fractional tubulin synthesis", "setting": "[2]; dose-dependence experiment: 2H2O started 24 hours before varying amounts of glutamate, sacrifice 24 hours post infusion", "result": "at most slight effects"}, {"measurement": "decreased label incorporation in tau-associated microtubules", "setting": "[2]; [3]", "result": "glutamate-dose dependent"}, {"measurement": "increased tubulin incorporation into dendritic and axonal shaft microtubules", "setting": "[2]; [3]", "result": "glutamate-dose dependent"}]}
